{
  "source": "patent US20060058374A1",
  "about": "“Urotensin II receptor agents” (priority 2002, published 2006)",
  "data": [
    {"system": "rats", "conditions": "oral administration to rats; cited from earlier work", "values": [
      {"smiles": "CC(CN(C)C)C1(c2ccccc2)Cc2ccccc2C(=O)O1", "note": "(centres unmarked) [3-(2-dimethylamino-(1-methyl-ethyl))-3,4-dihydro-3-phenyl-isocoumarin]", "antihypertensive action": "ineffective"}
    ]},
    {"system": "dogs", "conditions": "intravenal administration to dogs; cited from earlier work", "values": [
      {"smiles": "COc1ccc(C2(CCN(C)C)Cc3ccccc3C(=O)O2)cc1", "note": "(centres unmarked) [3-(2-dimethylamino-ethyl)-3,4-dihydro-3-(p-methoxy-phenyl)-isocoumarin]", "anti-hypertensive activity": "anti-hypertensive activity"},
      {"smiles": "CN(C)CCC1(c2ccccc2)Cc2ccccc2C(=O)O1", "note": "(centres unmarked) [3-(2-dimethylamino-ethyl)-3,4-dihydro-3-phenyl-isocoumarin]", "anti-hypertensive activity": "anti-hypertensive activity"},
      {"smiles": "CN(C)CCC1(c2ccccc2)Cc2ccccc2CO1", "note": "(centres unmarked) [3-(2-dimethylamino-ethyl)-3-(phenyl)-isochroman]", "anti-hypertensive activity": "anti-hypertensive activity"}
    ]},
    {"system": "rats", "conditions": "oral administration to rats; cited from earlier work", "remark": "another data set of the same source", "values": [
      {"smiles": "CC(CN(C)C)C1(c2ccccc2)Cc2ccccc2C(=O)O1", "note": "(centres unmarked) [3-(2-dimethylamino-(1-methyl-ethyl))-3,4-dihydro-3-phenyl-isocoumarin]", "diuretic action": "diuretics"},
      {"smiles": "COc1ccc(C2(CCN(C)C)Cc3ccccc3C(=O)O2)cc1", "note": "(centres unmarked) [3-(2-dimethylamino-ethyl)-3,4-dihydro-3-(p-methoxy-phenyl)-isocoumarin]", "diuretic action": "diuretics"},
      {"smiles": "CN(C)CCC1(c2ccccc2)Cc2ccccc2C(=O)O1", "note": "(centres unmarked) [3-(2-dimethylamino-ethyl)-3,4-dihydro-3-phenyl-isocoumarin]", "diuretic action": "diuretics"}
    ]},
    {"system": "not given", "conditions": "not given", "values": [
      {"smiles": "COc1cccc2c1CC(CCN(C)C)(c1ccccc1)OC2=O.Cl", "note": "(centres unmarked)", "melting point": "> 250 °C (dec.)"},
      {"smiles": "CN1CCN(CCC2(c3ccc(Cl)cc3)Cc3ccccc3C(=O)O2)CC1.Cl", "note": "(centres unmarked)", "melting point": "> 250 °C (dec.)"},
      {"smiles": "Cl.O=C1OC(CCN2CCCC2)(c2ccc(Cl)cc2)Cc2ccccc21", "note": "(centres unmarked)", "melting point": "> 250 °C (dec.)"},
      {"smiles": "Cl.O=C1OC(CCN2CCCCC2)(c2ccc(Cl)cc2)Cc2ccccc21", "note": "(centres unmarked)", "melting point": "> 250 °C (dec.)"},
      {"smiles": "COc1ccc(C2(CCN(C)C)Cc3ccccc3C(=O)O2)cc1.Cl", "note": "(centres unmarked)", "melting point": "> 250 °C (dec.)"},
      {"smiles": "COc1cccc(C2(CCN(C)C)Cc3ccccc3C(=O)O2)c1.Cl", "note": "(centres unmarked)", "melting point": "> 250 °C (dec.)"},
      {"smiles": "COc1ccccc1C1(CCN(C)C)Cc2ccccc2C(=O)O1.Cl", "note": "(centres unmarked)", "melting point": "> 250 °C (dec.)"},
      {"smiles": "CN(C)CCC1(c2cccc(F)c2)Cc2ccccc2C(=O)O1.Cl", "note": "(centres unmarked)", "melting point": "> 250 °C (dec.)"},
      {"smiles": "CN(C)CCC1(c2ccc(Oc3ccccc3)cc2)Cc2ccccc2C(=O)O1.Cl", "note": "(centres unmarked)", "melting point": "245.2 to 246.3 °C (dec.)"},
      {"smiles": "CN(C)CCC1(c2ccccc2Cl)Cc2ccccc2C(=O)O1.Cl", "note": "(centres unmarked)", "melting point": "> 250 °C (dec.)"},
      {"smiles": "CN(C)CCC1(c2cccs2)Cc2ccccc2C(=O)O1.Cl", "note": "(centres unmarked)", "melting point": "> 250 °C (dec.)"},
      {"smiles": "CN(C)CCC1(c2ccccc2)Cc2ccccc2C(=O)O1.Cl", "note": "(centres unmarked)", "melting point": "> 250 °C (dec.)"},
      {"smiles": "Cc1cccc2c1CC(CCN(C)C)(c1ccccc1)OC2=O.Cl", "note": "(centres unmarked)", "melting point": "> 250 °C (dec.)"},
      {"smiles": "Cc1ccc2c(c1)C(=O)OC(CCN(C)C)(c1ccccc1)C2.Cl", "note": "(centres unmarked)", "melting point": "> 250 °C (dec.)"},
      {"smiles": "CCN(CC)CCC1(c2ccc(Cl)cc2)Cc2ccccc2C(=O)O1.Cl", "note": "(centres unmarked)", "melting point": "> 250 °C (dec.)"},
      {"smiles": "CC1c2ccccc2C(=O)OC1(CCN(C)C)c1ccc(Cl)cc1.Cl", "note": "(centres unmarked)", "melting point": "> 250 °C (dec.)"},
      {"smiles": "CN(C)CCC1(c2cccc(Cl)c2)Cc2ccccc2C(=O)O1.Cl", "note": "(centres unmarked)", "melting point": "> 250 °C (dec.)"},
      {"smiles": "Cc1cccc2c1C(=O)OC(CCN(C)C)(c1ccc(Cl)cc1)C2.Cl", "note": "(centres unmarked)", "melting point": "> 250 °C (dec.)"},
      {"smiles": "CN(C)CCCC1(c2ccc(Cl)cc2)Cc2ccccc2C(=O)O1.Cl", "note": "(centres unmarked)", "melting point": "> 250 °C (dec.)"}
    ]}
  ]
}
